Source: PubChem BioAssay AID2060342 (Molecular Pharmacology Branch, DTP, NCI, 2025)
pIC50: −log10 of the molar value.

Test system: 171881-019-R-J1-PDC multicell spheroid viability
Experiment: Anticancer human tumor 171881-019-R-J1-PDC patient-derived invasive breast carcinoma cell line growth inhibition [IpAb]
Settings: for pIC50: curve of first compound; for viability, T/C: stronger effect = lower value
How it was run: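 Spheroids of 60% malignant cells, 25% HUVEC and 15% MSC were exposed to targeted agents combined with ipatasertib or abemaciclib. Doses started at or near clinical Cmax (10 microM when unknown) and fell in half-log steps.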

[1] = second compound 0.1 µM, first compound 0.0316 µM
[2] = second compound 0.1 µM, first compound 0.1 µM
[3] = second compound 0.1 µM, first compound 0.316 µM
[4] = second compound 0.1 µM, first compound 1 µM
[5] = second compound 0.1 µM, first compound 3.16 µM
[6] = second compound 0.1 µM, first compound 10 µM
[7] = second compound 0.316 µM, first compound 0.0316 µM
[8] = second compound 0.316 µM, first compound 0.1 µM
[9] = second compound 0.316 µM, first compound 0.316 µM
[10] = second compound 0.316 µM, first compound 1 µM
[11] = second compound 0.316 µM, first compound 3.16 µM
[12] = second compound 0.316 µM, first compound 10 µM
[13] = second compound 1 µM, first compound 0.0316 µM
[14] = second compound 1 µM, first compound 0.1 µM
[15] = second compound 1 µM, first compound 0.316 µM
[16] = second compound 1 µM, first compound 1 µM
[17] = second compound 1 µM, first compound 3.16 µM
[18] = second compound 1 µM, first compound 10 µM
[19] = second compound 3.16 µM, first compound 0.0316 µM
[20] = second compound 3.16 µM, first compound 0.1 µM
[21] = second compound 10 µM, first compound 0.0316 µM
[22] = second compound 10 µM, first compound 0.1 µM
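Also: spheroids exposed to the agents for seven days before readout.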

Cn1ncc(Cl)c1-c1cc(C(=O)NC(CN)Cc2cccc(F)c2)sc1Cl (stereo not given) + CC(C)NCC(C(=O)N1CCN(c2ncnc3c2C(C)CC3O)CC1)c1ccc(Cl)cc1
pIC50 (second compound 0.1 µM): 6.79 | pIC50 (second compound 0.316 µM): 7.18 | pIC50 (second compound 1 µM): > 7.50 | pIC50 (second compound 3.16 µM): > 7.50 | pIC50 (second compound 10 µM): > 7.50 | viability, T/C [1]: 86.5% | viability, T/C [2]: 67.3% | viability, T/C [3]: 25% | viability, T/C [4]: 13.1% | viability, T/C [5]: 4.31% | viability, T/C [6]: 0.42% | viability, T/C [7]: 59.8% | viability, T/C [8]: 45.3% | viability, T/C [9]: 22.6% | viability, T/C [10]: 10.6% | viability, T/C [11]: 3.79% | viability, T/C [12]: 0.18% | viability, T/C [13]: 23.8% | viability, T/C [14]: 20.8% | viability, T/C [15]: 13.8% | viability, T/C [16]: 9.71% | viability, T/C [17]: 3.91% | viability, T/C [18]: 0.14% | viability, T/C [19]: 10.8% | viability, T/C [20]: 10.5% | viability, T/C (second compound 3.16 µM, first compound 0.316 µM): 9.15% | viability, T/C (second compound 3.16 µM, first compound 1 µM): 7.27% | viability, T/C (second compound 3.16 µM, first compound 3.16 µM): 3.38% | viability, T/C (second compound 3.16 µM, first compound 10 µM): 0.25% | viability, T/C [21]: 5.35% | viability, T/C [22]: 5.51% | viability, T/C (second compound 10 µM, first compound 0.316 µM): 5.12% | viability, T/C (second compound 10 µM, first compound 1 µM): 4.62% | viability, T/C (second compound 10 µM, first compound 3.16 µM): 2.7% | viability, T/C (second compound 10 µM, first compound 10 µM): 0.21%

Cn1ncnc1[C@H]1c2n[nH]c(=O)c3cc(F)cc(c23)N[C@@H]1c1ccc(F)cc1 + CC(C)NCC(C(=O)N1CCN(c2ncnc3c2C(C)CC3O)CC1)c1ccc(Cl)cc1
pIC50 (second compound 0.1 µM): < 7.00 | pIC50 (second compound 0.316 µM): < 7.00 | pIC50 (second compound 1 µM): > 9.50 | pIC50 (second compound 3.16 µM): > 9.50 | pIC50 (second compound 10 µM): > 9.50 | viability, T/C (second compound 0.1 µM, first compound 0.000316 µM): 102% | viability, T/C (second compound 0.1 µM, first compound 0.001 µM): 114% | viability, T/C (second compound 0.1 µM, first compound 0.00316 µM): 121% | viability, T/C (second compound 0.1 µM, first compound 0.01 µM): 108% | viability, T/C [1]: 108% | viability, T/C [2]: 101% | viability, T/C (second compound 0.316 µM, first compound 0.000316 µM): 74.8% | viability, T/C (second compound 0.316 µM, first compound 0.001 µM): 75.1% | viability, T/C (second compound 0.316 µM, first compound 0.00316 µM): 75.6% | viability, T/C (second compound 0.316 µM, first compound 0.01 µM): 72.6% | viability, T/C [7]: 65.8% | viability, T/C [8]: 60.8% | viability, T/C (second compound 1 µM, first compound 0.000316 µM): 27.4% | viability, T/C (second compound 1 µM, first compound 0.001 µM): 24.4% | viability, T/C (second compound 1 µM, first compound 0.00316 µM): 20.7% | viability, T/C (second compound 1 µM, first compound 0.01 µM): 24.6% | viability, T/C [13]: 20.3% | viability, T/C [14]: 17.1% | viability, T/C (second compound 3.16 µM, first compound 0.000316 µM): 10.7% | viability, T/C (second compound 3.16 µM, first compound 0.001 µM): 12.5% | viability, T/C (second compound 3.16 µM, first compound 0.00316 µM): 8.98% | viability, T/C (second compound 3.16 µM, first compound 0.01 µM): 10% | viability, T/C [19]: 8.89% | viability, T/C [20]: 7.64% | viability, T/C (second compound 10 µM, first compound 0.000316 µM): 5.76% | viability, T/C (second compound 10 µM, first compound 0.001 µM): 5.36% | viability, T/C (second compound 10 µM, first compound 0.00316 µM): 5.17% | viability, T/C (second compound 10 µM, first compound 0.01 µM): 5.3% | viability, T/C [21]: 4.77% | viability, T/C [22]: 4.29%

C=CCn1c(=O)c2cnc(Nc3ccc(N4CCN(C)CC4)cc3)nc2n1-c1cccc(C(C)(C)O)n1 + CCN1CCN(Cc2ccc(Nc3ncc(F)c(-c4cc(F)c5nc(C)n(C(C)C)c5c4)n3)nc2)CC1
pIC50 (second compound 0.01 µM): 6.06 | pIC50 (second compound 0.0316 µM): 6.00 | pIC50 (second compound 0.1 µM): 5.78 | pIC50 (second compound 0.316 µM): < 5.00 | pIC50 (second compound 1 µM): < 5.00 | viability, T/C (second compound 0.01 µM, first compound 0.0316 µM): 88.8% | viability, T/C (second compound 0.01 µM, first compound 0.1 µM): 93.3% | viability, T/C (second compound 0.01 µM, first compound 0.316 µM): 109% | viability, T/C (second compound 0.01 µM, first compound 1 µM): 43.2% | viability, T/C (second compound 0.01 µM, first compound 3.16 µM): 30.3% | viability, T/C (second compound 0.01 µM, first compound 10 µM): 30.3% | viability, T/C (second compound 0.0316 µM, first compound 0.0316 µM): 116% | viability, T/C (second compound 0.0316 µM, first compound 0.1 µM): 97.3% | viability, T/C (second compound 0.0316 µM, first compound 0.316 µM): 119% | viability, T/C (second compound 0.0316 µM, first compound 1 µM): 50% | viability, T/C (second compound 0.0316 µM, first compound 3.16 µM): 35% | viability, T/C (second compound 0.0316 µM, first compound 10 µM): 32% | viability, T/C [1]: 110% | viability, T/C [2]: 105% | viability, T/C [3]: 126% | viability, T/C [4]: 57.9% | viability, T/C [5]: 42.7% | viability, T/C [6]: 37.2% | viability, T/C [7]: 131% | viability, T/C [8]: 137% | viability, T/C [9]: 134% | viability, T/C [10]: 83.1% | viability, T/C [11]: 57.1% | viability, T/C [12]: 47.7% | viability, T/C [13]: 150% | viability, T/C [14]: 150% | viability, T/C [15]: 149% | viability, T/C [16]: 98.8% | viability, T/C [17]: 78.7% | viability, T/C [18]: 69.8%

Cn1cnc2c(F)c(Nc3ccc(Br)cc3Cl)c(C(=O)NOCCO)cc21 + CCN1CCN(Cc2ccc(Nc3ncc(F)c(-c4cc(F)c5nc(C)n(C(C)C)c5c4)n3)nc2)CC1
pIC50 (second compound 0.01 µM): 5.90 | pIC50 (second compound 0.0316 µM): 5.95 | pIC50 (second compound 0.1 µM): 5.94 | pIC50 (second compound 0.316 µM): 5.85 | pIC50 (second compound 1 µM): 5.88 | viability, T/C (second compound 0.01 µM, first compound 0.00949 µM): 97.1% | viability, T/C (second compound 0.01 µM, first compound 0.03 µM): 114% | viability, T/C (second compound 0.01 µM, first compound 0.0949 µM): 112% | viability, T/C (second compound 0.01 µM, first compound 0.3 µM): 114% | viability, T/C (second compound 0.01 µM, first compound 0.949 µM): 61.3% | viability, T/C (second compound 0.01 µM, first compound 3 µM): 13.9% | viability, T/C (second compound 0.0316 µM, first compound 0.00949 µM): 121% | viability, T/C (second compound 0.0316 µM, first compound 0.03 µM): 120% | viability, T/C (second compound 0.0316 µM, first compound 0.0949 µM): 130% | viability, T/C (second compound 0.0316 µM, first compound 0.3 µM): 109% | viability, T/C (second compound 0.0316 µM, first compound 0.949 µM): 56.8% | viability, T/C (second compound 0.0316 µM, first compound 3 µM): 14.6% | viability, T/C (second compound 0.1 µM, first compound 0.00949 µM): 112% | viability, T/C (second compound 0.1 µM, first compound 0.03 µM): 138% | viability, T/C (second compound 0.1 µM, first compound 0.0949 µM): 126% | viability, T/C (second compound 0.1 µM, first compound 0.3 µM): 99.7% | viability, T/C (second compound 0.1 µM, first compound 0.949 µM): 58.3% | viability, T/C (second compound 0.1 µM, first compound 3 µM): 15.9% | viability, T/C (second compound 0.316 µM, first compound 0.00949 µM): 142% | viability, T/C (second compound 0.316 µM, first compound 0.03 µM): 142% | viability, T/C (second compound 0.316 µM, first compound 0.0949 µM): 136% | viability, T/C (second compound 0.316 µM, first compound 0.3 µM): 116% | viability, T/C (second compound 0.316 µM, first compound 0.949 µM): 63.4% | viability, T/C (second compound 0.316 µM, first compound 3 µM): 23.4% | viability, T/C (second compound 1 µM, first compound 0.00949 µM): 149% | viability, T/C (second compound 1 µM, first compound 0.03 µM): 142% | viability, T/C (second compound 1 µM, first compound 0.0949 µM): 138% | viability, T/C (second compound 1 µM, first compound 0.3 µM): 106% | viability, T/C (second compound 1 µM, first compound 0.949 µM): 59.5% | viability, T/C (second compound 1 µM, first compound 3 µM): 25.8%
